Laboratory results from US9265253B2, “Use of macrocyclic picolinamides as fungicides” (DOW AGROSCIENCES LLC, priority 2013, dated 2016).
Read-outs that look alike come from different tables or passages of the source.

How the values were obtained:
[1] = system: Mycosphaerella graminicola; Anamorph: Septoria tritici; assay: Leaf Blotch of Wheat (SEPTTR) disease control; type: in vivo; conditions: Zymoseptoria tritici, rate 100 ppm
Method in brief: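 Percent disease control is derived from Septoria tritici leaf blotch severity (0 to 100 percent) on treated versus untreated wheat seedlings. Plants get fungicide spray to run-off, with inoculation either preceding or following application, then humid incubation at 20° C.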

[2] = system: Puccinia triticina; Synonym: Puccinia recondite f. Sp. Tritici; assay: Wheat Brown Rust (PUCCRT) disease control; type: in vivo; conditions: Puccinia triticina, topical, rate 100 ppm
Method in brief: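 Brown rust on first-leaf Yuma wheat: spore inoculation before or after spray application (acetone/Triton X-100 solution, or EC with Trycol in track spray), overnight 100% RH at 22 °C, disease developed at 24 °C. Severity scored 0–100% and converted to percent control against untreated.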

[3] = 24 h, 1 Day Protectant, read-out: SEPTTR 1 DP disease control
[4] = 72 h, 3 Day Curative, read-out: SEPTTR 3 DC disease control
[5] = 24 h, 1 Day Protectant, read-out: PUCCRT 1 DP disease control
[6] = 72 h, 3 Day Curative, read-out: PUCCRT 3 DC disease control

| SMILES | pest or weed control at 100 ppm [1, 3] [%] | pest or weed control at 100 ppm [1, 4] [%] | melting point [°C] | pest or weed control at 100 ppm [2, 5] [%] | pest or weed control at 100 ppm [2, 6] [%] |
| --- | --- | --- | --- | --- | --- |
| COc1ccnc(C(=O)N[C@H]2CCC[C@H](Cc3ccc(C)cc3)[C@@H](Oc3ccccc3)[C@H](C)OC2=O)c1O [Compound F49, 3-hydroxy-4-methoxy-N-((3S,7R,8R,9S)-9-methyl-7-(4-methylbenzyl)-2-oxo-8-phenoxyoxonan-3-yl)picolinamide] | 80 to 100 | 80 to 100 | 62 to 66 | 80 to 100 | 0 to 80 |
| COc1ccnc(C(=O)N[C@H]2CCC[C@H](Cc3ccc(C)cc3)[C@@H](OCC3CC3)[C@H](C)OC2=O)c1OCOC(C)=O [Compound F127] | 80 to 100 | 80 to 100 | 55 to 60 | 80 to 100 | 80 to 100 |
